Results on 31 compounds are retold here after patent US20030186967A1, “Acylresorcinol derivatives are selective vitronectin receptor inhibitors” (American Home Products Corporation, priority 1998, published 2003).

The assay addresses T1, Vitronectin receptor αVβ3 (Homo sapiens, UniProt P05106+P06756).
T1 construct: expressed in transfected cells; host or cells: 512P5 cells (plasma membrane preparation)
Kind of assay: Vitronectin Receptor αVβ3 Binding Assay. The conditions noted are these: read-out: VnR (IC50μM).

T1 sequence (P06756 31-889 limits assumed): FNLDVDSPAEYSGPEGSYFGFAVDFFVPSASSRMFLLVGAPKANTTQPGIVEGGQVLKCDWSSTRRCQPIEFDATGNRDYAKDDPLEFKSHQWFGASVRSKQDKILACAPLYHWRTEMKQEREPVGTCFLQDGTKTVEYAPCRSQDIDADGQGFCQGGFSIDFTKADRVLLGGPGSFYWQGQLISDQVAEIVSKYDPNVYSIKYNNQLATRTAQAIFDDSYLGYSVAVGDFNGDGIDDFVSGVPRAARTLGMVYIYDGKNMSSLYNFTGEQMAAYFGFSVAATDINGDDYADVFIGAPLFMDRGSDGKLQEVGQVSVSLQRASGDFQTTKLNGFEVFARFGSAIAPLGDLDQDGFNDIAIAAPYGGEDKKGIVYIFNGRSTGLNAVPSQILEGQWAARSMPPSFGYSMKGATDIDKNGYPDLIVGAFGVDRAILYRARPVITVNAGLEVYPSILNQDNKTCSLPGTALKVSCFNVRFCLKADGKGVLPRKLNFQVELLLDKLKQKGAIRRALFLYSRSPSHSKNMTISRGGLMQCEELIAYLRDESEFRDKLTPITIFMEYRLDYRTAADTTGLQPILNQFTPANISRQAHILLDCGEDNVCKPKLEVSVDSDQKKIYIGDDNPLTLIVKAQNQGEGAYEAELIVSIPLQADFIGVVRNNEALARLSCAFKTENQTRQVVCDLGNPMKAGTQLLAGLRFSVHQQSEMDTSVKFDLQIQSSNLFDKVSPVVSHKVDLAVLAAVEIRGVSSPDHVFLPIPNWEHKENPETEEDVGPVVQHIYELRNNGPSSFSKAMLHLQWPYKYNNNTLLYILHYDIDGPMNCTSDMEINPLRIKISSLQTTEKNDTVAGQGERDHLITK
T1 sequence (P06756 891-1048 partner limits assumed): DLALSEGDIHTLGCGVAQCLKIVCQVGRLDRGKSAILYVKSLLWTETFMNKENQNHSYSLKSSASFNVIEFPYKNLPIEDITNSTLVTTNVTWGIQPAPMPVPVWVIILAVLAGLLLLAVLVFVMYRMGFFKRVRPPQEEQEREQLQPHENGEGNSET
T1 sequence (P05106 27-788): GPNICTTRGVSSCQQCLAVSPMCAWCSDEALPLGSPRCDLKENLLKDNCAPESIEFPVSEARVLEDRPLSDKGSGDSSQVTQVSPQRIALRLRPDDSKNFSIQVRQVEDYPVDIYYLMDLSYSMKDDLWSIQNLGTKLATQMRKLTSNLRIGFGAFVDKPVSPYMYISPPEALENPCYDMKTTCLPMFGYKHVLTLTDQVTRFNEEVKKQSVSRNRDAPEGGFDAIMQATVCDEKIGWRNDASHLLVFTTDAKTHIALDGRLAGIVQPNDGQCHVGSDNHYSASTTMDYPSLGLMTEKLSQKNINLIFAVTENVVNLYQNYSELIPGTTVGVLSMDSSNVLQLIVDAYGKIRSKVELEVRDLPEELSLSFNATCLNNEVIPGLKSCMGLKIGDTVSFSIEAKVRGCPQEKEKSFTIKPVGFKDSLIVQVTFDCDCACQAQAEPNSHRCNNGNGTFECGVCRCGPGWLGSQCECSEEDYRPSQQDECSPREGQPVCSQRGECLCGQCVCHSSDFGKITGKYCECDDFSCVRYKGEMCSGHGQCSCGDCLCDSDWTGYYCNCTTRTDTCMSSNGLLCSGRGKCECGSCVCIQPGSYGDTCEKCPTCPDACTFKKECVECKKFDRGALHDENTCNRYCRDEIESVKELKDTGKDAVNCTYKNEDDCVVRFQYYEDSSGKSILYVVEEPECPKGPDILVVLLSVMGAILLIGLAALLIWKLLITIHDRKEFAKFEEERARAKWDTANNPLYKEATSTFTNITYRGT

Turning to `O=C(Nc1ccccc1Br)N[C@@H](CNC(=O)c1ccc(OCCNc2ncccn2)cc1O)C(=O)O` [Example 81, (2S)-2-{[(2-bromoanilino)carbonyl]amino}-3-({2-hydroxy-4-[2-(pyrimidin-2-ylamino)ethoxy]benzoyl}amino)propanoic acid], the IC50 is > 1 µM.

Consider `O=C(Nc1ccccc1-c1ccccc1)N[C@@H](CNC(=O)c1ccc(OCCNc2ncccn2)cc1O)C(=O)O` [Example 82, (2S)-2-{[([1,1′-biphenyl]-2-ylamino)carbonyl]amino}-3-({2-hydroxy-4-[2-(pyrimidin-2-ylamino)ethoxy]benzoyl}amino)propanoic acid], for which the IC50 is > 1 µM.

For `Cc1ccc(NC(=O)N[C@@H](CNC(=O)c2ccc(OCCNc3ncccn3)cc2O)C(=O)O)cc1` [Example 83, (2S)-3-({2-hydroxy-4-[2-(pyrimidin-2-ylamino)ethoxy]benzoyl}amino)-2-[(4-toluidinocarbonyl)amino]propanoic acid], the IC50 is > 1 µM.

`O=C(Nc1ccc(OC(F)(F)F)cc1)N[C@@H](CNC(=O)c1ccc(OCCNc2ncccn2)cc1O)C(=O)O` [Example 85, (2S)-3-({2-hydroxy-4-[2-(pyrimidin-2-ylamino)ethoxy]benzoyl}amino)-2-({[4-(trifluoromethoxy)anilino]carbonyl}amino)propanoic acid]: the IC50 is > 1 µM.

In the case of `O=C(Nc1ccc(Cl)cc1)N[C@@H](CNC(=O)c1ccc(OCCNc2ncccn2)cc1O)C(=O)O` [Example 86, (2S)-2-{[(4-chloroanilino)carbonyl]amino}-3-({2-hydroxy-4-[2-(pyrimidin-2-ylamino)ethoxy]benzoyl}amino)propanoic acid], the IC50 is > 1 µM.

On to `O=C(Nc1ccc(F)cc1)N[C@@H](CNC(=O)c1ccc(OCCNc2ncccn2)cc1O)C(=O)O` [Example 87, (2S)-2-{[(4-fluoroanilino)carbonyl]amino}-3-({2-hydroxy-4-[2-(pyrimidin-2-ylamino)ethoxy]benzoyl}amino)propanoic acid], for which the IC50 is > 1 µM.

On to `CC(=O)c1ccc(NC(=O)N[C@@H](CNC(=O)c2ccc(OCCNc3ncccn3)cc2O)C(=O)O)cc1` [Example 88, (2S)-2-{[(4-acetylanilino)carbonyl]amino}-3-({2-hydroxy-4-[2-(pyrimidin-2-ylamino)ethoxy]benzoyl}amino)propanoic acid], for which the IC50 was > 1 µM.

Regarding `O=C(NC1CCCCC1)N[C@@H](CNC(=O)c1ccc(OCCNc2ncccn2)cc1O)C(=O)O` [Example 90, (2S)-2-{[(cyclohexylamino)carbonyl]amino}-3-({2-hydroxy-4-[2-(pyrimidin-2-ylamino)ethoxy]benzoyl}amino)propanoic acid], the IC50 was > 1 µM.

Consider `O=C(NCc1ccccc1)N[C@@H](CNC(=O)c1ccc(OCCNc2ncccn2)cc1O)C(=O)O` [Example 92, (2S)-2-{[(benzylamino)carbonyl]amino}-3-({2-hydroxy-4-[2-(pyrimidin-2-ylamino)ethoxy]benzoyl}amino)propanoic acid], for which the IC50 is > 1 µM.

As for `O=C(NCCc1ccccc1)N[C@@H](CNC(=O)c1ccc(OCCNc2ncccn2)cc1O)C(=O)O` [Example 93, (2S)-3-({2-hydroxy-4-[2-(pyrimidin-2-ylamino)ethoxy]benzoyl}amino)-2-({[(2phenylethyl)amino]carbonyl}amino)propanoic acid], the IC50 was > 1 µM.

In the case of `CCCCCCCCNC(=O)N[C@@H](CNC(=O)c1ccc(OCCNc2ncccn2)cc1O)C(=O)O` [Example 94, (2S)-3-({2-hydroxy-4-[2-(pyrimidin-2-ylamino)ethoxy]benzoyl}amino)-2-{[(octylamino)carbonyl]amino}propanoic acid], the IC50 is > 1 µM.

In the case of `CC(C)(C)COC(=O)N[C@@H](CNC(=O)c1ccc(OCCNC2=NCCN2)cc1O)C(=O)O` [Example 95], the IC50 was 0.105 µM.

For `O=C(N[C@@H](CNC(=O)c1ccc(OCCNC2=NCCN2)cc1O)C(=O)O)OCc1ccccc1` [Example 96, (2S)-2-{[(benzyloxy)carbonyl]amino}-3-({4-[2-(4,5-dihydro-1H-imidazol-2-ylamino)ethoxy]-2-hydroxybenzoyl}amino)propanoic acid], the IC50 turned out to be 0.119 µM.

`COC(=O)N[C@@H](CNC(=O)c1ccc(OCCNC2=NCCN2)cc1O)C(=O)O` [Example 97, (2S)-3-({4-[2-(4,5-dihydro-1H-imidazol-2-ylamino)ethoxy]-2-hydroxybenzoyl}-amino)-2-[(methoxycarbonyl)amino]propanoic acid]: the IC50 turned out to be 0.77 µM.

Turning to `CCOC(=O)N[C@@H](CNC(=O)c1ccc(OCCNC2=NCCN2)cc1O)C(=O)O` [Example 98, (2S)-3-({4-[2-(4,5-dihydro-1H-imidazol-2-ylamino)ethoxy]-2-hydroxybenzoyl}-amino)-2-[(ethoxycarbonyl)amino]propanoic acid], the IC50 stood at 0.15 µM.

Consider `CCCOC(=O)N[C@@H](CNC(=O)c1ccc(OCCNC2=NCCN2)cc1O)C(=O)O` [Example 99, (2S)-3-({4-[2-(4,5-dihydro-1H-imidazol-2-ylamino)ethoxy]-2-hydroxybenzoyl}-amino)-2-[(propoxycarbonyl)amino]propanoic acid], for which the IC50 was found to be 0.088 µM.

For `CC(C)OC(=O)N[C@@H](CNC(=O)c1ccc(OCCNC2=NCCN2)cc1O)C(=O)O` [Example 100, (2S)-3-({4-[2-(4,5-dihydro-1H-imidazol-2-ylamino)ethoxy]-2-hydroxybenzoyl}-amino)-2-[(isopropoxycarbonyl)amino]propanoic acid], the IC50 was found to be 0.079 µM.

Regarding `C=CCOC(=O)N[C@@H](CNC(=O)c1ccc(OCCNC2=NCCN2)cc1O)C(=O)O` [Example 101, (2S)-2-{[(allyloxy)carbonyl]amino}-3-({4-[2-(4,5-dihydro-1H-imidazol-2-ylamino)-ethoxy]-2-hydroxybenzoyl}amino)propanoic acid], the IC50 came to 0.094 µM.

On to `C=CCCOC(=O)N[C@@H](CNC(=O)c1ccc(OCCNC2=NCCN2)cc1O)C(=O)O` [Example 102, (2S)-2-{[(but-3-enyloxy)carbonyl]amino}-3-({4-[2-(4,5-dihydro-1H-imidazol-2-ylamino)ethoxy]-2-hydroxybenzoyl}amino)propanoic acid], for which the IC50 came out at 0.069 µM.

Regarding `C#CCOC(=O)N[C@@H](CNC(=O)c1ccc(OCCNC2=NCCN2)cc1O)C(=O)O` [Example 103, (2S)-3-({4-[2-(4,5-dihydro-1H-imidazol-2-ylamino)ethoxy]-2-hydroxybenzoyl}-amino)-2-{[(prop-2-ynyloxy)carbonyl]amino}propanoic acid], the IC50 was found to be 0.21 µM.

Regarding `CCCCCCOC(=O)N[C@@H](CNC(=O)c1ccc(OCCNC2=NCCN2)cc1O)C(=O)O` [Example 104, (2S)-3-({4-[2-(4,5-dihydro-1H-imidazol-2-ylamino)ethoxy]-2-hydroxybenzoyl}-amino)-2-{[(hexyloxy)carbonyl]amino}propanoic acid], the IC50 is 0.086 µM.

`CCCCCCCCOC(=O)N[C@@H](CNC(=O)c1ccc(OCCNC2=NCCN2)cc1O)C(=O)O` [Example 105, (2S)-3-({4-[2-(4,5-dihydro-1H-imidazol-2-ylamino)ethoxy]-2-hydroxybenzoyl}-amino)-2-{[(octyloxy)carbonyl]amino}propanoic acid]: the IC50 was found to be 0.135 µM.

For the compound `CCCCOC(=O)N[C@@H](CNC(=O)c1ccc(OCCNC2=NCCN2)cc1O)C(=O)O` [Example 106, (2S)-2-[(butoxycarbonyl)amino]-3-({4-[2-(4,5-dihydro-1H-imidazol-2-ylamino)ethoxy]-2-hydroxybenzoyl}amino)propanoic acid], the IC50 came to 0.114 µM.

As for `CC(C)COC(=O)N[C@@H](CNC(=O)c1ccc(OCCNC2=NCCN2)cc1O)C(=O)O` [Example 107, (2S)-3-({4-[2-(4,5-dihydro-1H-imidazol-2-ylamino)ethoxy]-2-hydroxybenzoyl}-amino)-2-[(isobutoxycarbonyl)amino]propanoic acid], the IC50 was 0.13 µM.

For `CCCCNC(=O)N[C@@H](CNC(=O)c1ccc(OCCNC2=NCCN2)cc1O)C(=O)O` [Example 108, (2S)-2-{[(butylamino)carbonyl]amino}-3-({4-[2-(4,5-dihydro-1H-imidazol-2-ylamino)ethoxy]-2-hydroxybenzoyl}amino)propanoic acid], the IC50 worked out at 1.1 µM.

Take `CCCCCCNC(=O)N[C@@H](CNC(=O)c1ccc(OCCNC2=NCCN2)cc1O)C(=O)O` [Example 109, (2S)-3-({4-[2-(4,5-dihydro-1H-imidazol-2-ylamino)ethoxy]-2-hydroxybenzoyl}-amino)-2-{[(hexylamino)carbonyl]amino}propanoic acid]: the IC50 is 0.251 µM.

For the compound `CCCCCCCCNC(=O)N[C@@H](CNC(=O)c1ccc(OCCNC2=NCCN2)cc1O)C(=O)O` [Example 110, (2S)-3-({4-[2-(4,5-dihydro-1H-imidazol-2-ylamino)ethoxy]-2-hydroxybenzoyl}-amino)-2-{[(octylamino)carbonyl]amino}propanoic acid], the IC50 was determined as 0.544 µM.

Regarding `C=CCNC(=O)N[C@@H](CNC(=O)c1ccc(OCCNC2=NCCN2)cc1O)C(=O)O` [Example 111, (2S)-2-{[(allylamino)carbonyl]amino}-3-({4-[2-(4,5-dihydro-1H-imidazol-2-ylamino)ethoxy]-2-hydroxybenzoyl}amino)propanoic acid], the IC50 is 0.856 µM.

Regarding `O=C(NC1CCCCC1)N[C@@H](CNC(=O)c1ccc(OCCNC2=NCCN2)cc1O)C(=O)O` [Example 112, (2S)-2-{[(cyclohexylamino)carbonyl]amino}-3-({4-[2-(4,5-dihydro-1H-imidazol-2-ylamino)ethoxy]-2-hydroxybenzoyl}amino)propanoic acid], the IC50 worked out at 1.09 µM.

As for `O=C(NCc1ccccc1)N[C@@H](CNC(=O)c1ccc(OCCNC2=NCCN2)cc1O)C(=O)O` [Example 113, (2S)-2-{[(benzylamino)carbonyl]amino}-3-({^4-[2-(4,5-dihydro-1H-imidazol-2-ylamino)ethoxy]-2-hydroxybenzoyl}amino)propanoic acid], the IC50 worked out at 3.03 µM.

As for `COc1ccccc1NC(=O)N[C@@H](CNC(=O)c1ccc(OCCNC2=NCCN2)cc1O)C(=O)O` [Example 115, (2S)-3-({4-[2-(4,5-dihydro-1H-imidazol-2-ylamino)ethoxy]-2-hydroxybenzoyl}-amino)-2-{[(2-methoxyanilino)carbonyl]amino}propanoic acid], the IC50 was found to be 0.258 µM.
